This assay addresses T1, Full-length USP19 (Homo sapiens, UniProt O94966).
T1 construct: Full-length USP19 was purchased from Boston Biochem (E-576); purchased Boston Biochem E-576
T1 sequence (O94966 1-1318): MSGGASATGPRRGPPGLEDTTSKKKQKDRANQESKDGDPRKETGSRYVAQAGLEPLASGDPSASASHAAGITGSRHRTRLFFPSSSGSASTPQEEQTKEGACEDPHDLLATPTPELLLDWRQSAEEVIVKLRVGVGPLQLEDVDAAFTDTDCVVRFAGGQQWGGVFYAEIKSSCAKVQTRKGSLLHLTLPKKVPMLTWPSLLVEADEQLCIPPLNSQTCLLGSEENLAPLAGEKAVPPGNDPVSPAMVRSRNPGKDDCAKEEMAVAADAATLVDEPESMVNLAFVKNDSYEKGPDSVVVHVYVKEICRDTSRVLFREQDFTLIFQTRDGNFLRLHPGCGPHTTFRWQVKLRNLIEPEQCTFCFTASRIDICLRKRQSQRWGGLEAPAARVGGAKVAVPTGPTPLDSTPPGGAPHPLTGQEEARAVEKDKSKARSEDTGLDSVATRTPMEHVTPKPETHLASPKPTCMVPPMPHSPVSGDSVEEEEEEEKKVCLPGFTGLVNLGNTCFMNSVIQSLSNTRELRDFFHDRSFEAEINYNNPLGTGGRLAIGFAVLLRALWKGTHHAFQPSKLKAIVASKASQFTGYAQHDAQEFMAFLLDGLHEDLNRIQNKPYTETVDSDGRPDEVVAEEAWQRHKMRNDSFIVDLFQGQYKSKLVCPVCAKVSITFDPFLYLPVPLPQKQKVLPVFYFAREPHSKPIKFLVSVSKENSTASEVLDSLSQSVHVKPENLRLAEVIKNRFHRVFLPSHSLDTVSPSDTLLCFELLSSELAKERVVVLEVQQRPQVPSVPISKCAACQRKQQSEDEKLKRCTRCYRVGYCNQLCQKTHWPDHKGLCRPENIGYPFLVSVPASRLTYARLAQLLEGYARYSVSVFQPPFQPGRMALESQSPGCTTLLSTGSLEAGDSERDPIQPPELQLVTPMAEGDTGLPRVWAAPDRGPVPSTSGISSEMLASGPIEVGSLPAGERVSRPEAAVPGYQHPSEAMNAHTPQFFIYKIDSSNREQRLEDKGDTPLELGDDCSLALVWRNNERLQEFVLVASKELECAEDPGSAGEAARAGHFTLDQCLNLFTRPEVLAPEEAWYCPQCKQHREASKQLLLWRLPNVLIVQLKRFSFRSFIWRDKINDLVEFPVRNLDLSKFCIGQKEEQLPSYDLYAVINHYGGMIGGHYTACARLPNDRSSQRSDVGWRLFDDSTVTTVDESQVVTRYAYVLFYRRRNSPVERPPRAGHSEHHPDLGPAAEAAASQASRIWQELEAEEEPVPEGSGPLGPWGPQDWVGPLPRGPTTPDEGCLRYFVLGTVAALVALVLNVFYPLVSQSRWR
The experiment in a line: USP19 fluorescence polarisation (FP) homogeneous assay with Ubiquitin-Lys-TAMRA substrate. It is filed as biochemical. The conditions noted are these: 2.5 nM USP19, 30 min pre-incubation, average of at least two duplicate experiments. The method, boiled down:
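Full-length USP19 preincubated 30 min at RT with inhibitor (200 μM to 2 μM series, 8–18 points) before adding 500 nM Ubiquitin-Lys-TAMRA substrate.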
(Fluorescence polarisation rises when a labelled molecule tumbles more slowly, as on binding a larger partner.)

pIC50: −log10 of the molar value. Bounds are passed on as bounds.

Take `O=C(N1CC[C@@](O)(Cn2cnc(-c3ccccc3F)cc2=O)C2(CCCC2)C1)N1CCNC[C@H]1c1ccccc1` [Example 314, 6-(2-Fluorophenyl)-3-(((S)-10-hydroxy-7-((R)-2-phenylpiperazine-1-carbonyl)-7-azaspiro[4.5]decan-10-yl)methyl)pyrimidin-4(3H)-one]: the pIC50 was greater than 6.30.
In the case of `O=C(N1CC[C@@](O)(Cn2cnc(-c3cccc(F)c3)cc2=O)C2(CCCC2)C1)N1CCNC[C@H]1c1ccccc1` [Example 315, 6-(3-Fluorophenyl)-3-(((S)-10-hydroxy-7-((R)-2-phenylpiperazine-1-carbonyl)-7-azaspiro[4.5]decan-10-yl)methyl)pyrimidin-4(3H)-one] it was greater than 6.30; in that of `O=C(N1CC[C@@](O)(Cn2cnc(-c3ccc(F)cc3)cc2=O)C2(CCCC2)C1)N1CCNC[C@H]1c1ccccc1` [Example 316, 6-(4-Fluorophenyl)-3-(((S)-10-hydroxy-7-((R)-2-phenylpiperazine-1-carbonyl)-7-azaspiro[4.5]decan-10-yl)methyl)pyrimidin-4(3H)-one], greater than 6.30.
In the case of `COc1ccccc1-c1cc(=O)n(C[C@]2(O)CCN(C(=O)N3CCNC[C@H]3c3ccccc3)CC23CCCC3)cn1` [Example 317, 3-(((S)-10-Hydroxy-7-((R)-2-phenylpiperazine-1-carbonyl)-7-azaspiro[4.5]decan-10-yl)methyl)-6-(2-methoxyphenyl)pyrimidin-4(3H)-one] it was greater than 6.30.
The result for `CN(C)c1cc(=O)n(C[C@]2(O)CCN(C(=O)N3CCNC[C@H]3c3ccccc3)CC23CCCC3)cn1` [Example 318, 6-(Dimethylamino)-3-(((S)-10-hydroxy-7-((R)-2-phenylpiperazine-1-carbonyl)-7-azaspiro[4.5]decan-10-yl)methyl)pyrimidin-4(3H)-one] reads greater than 6.30; that for `CNc1cc(=O)n(C[C@]2(O)CCN(C(=O)N3CCNC[C@H]3c3ccccc3)CC23CCCC3)cn1` [Example 319, 3-(((S)-10-Hydroxy-7-((R)-2-phenylpiperazine-1-carbonyl)-7-azaspiro[4.5]decan-10-yl)methyl)-6-(methylamino)pyrimidin-4(3H)-one], greater than 6.30; that for `O=C(N1CC[C@@](O)(Cn2cnc(-c3ccccc3)cc2=O)C2(CCCC2)C1)N1CCNC[C@H]1c1cccc(F)c1` [Example 320, 3-(((S)-7-((R)-2-(3-Fluorophenyl)piperazine-1-carbonyl)-10-hydroxy-7-azaspiro[4.5]decan-10-yl)methyl)-6-phenylpyrimidin-4(3H)-one], greater than 6.30.
As to `O=C(N1CCC(O)(Cn2cnc(-c3ccccc3)cc2=O)C2(CCOCC2)C1)N1CCNC[C@H]1c1ccccc1` (stereo partly drawn) [Example 321, 3-((5-Hydroxy-2-((R)-2-phenylpiperazine-1-carbonyl)-9-oxa-2-azaspiro[5.5]undecan-5-yl)methyl)-6-phenylpyrimidin-4(3H)-one], the pIC50 was greater than 6.30.
For `CC1(C)CN(C(=O)N2CCNC[C@H]2c2ccccc2)CC[C@@]1(O)Cn1cnc(-c2ccccc2)cc1=O` [Example 322, 3-(((S)-4-Hydroxy-3,3-dimethyl-1-((R)-2-phenylpiperazine-1-carbonyl)piperidin-4-yl)methyl)-6-phenylpyrimidin-4(3H)-one], the pIC50 was greater than 6.30.
In the case of `O=C(N1CC[C@@](O)(Cn2cnc(-c3ccccc3)cc2=O)C2(CCCC2)C1)N1CCN(CC(F)(F)F)C[C@H]1c1ccccc1` [Example 323, 3-(((S)-10-Hydroxy-7-((R)-2-phenyl-4-(2,2,2-trifluoroethyl)piperazine-1-carbonyl)-7-azaspiro[4.5]decan-10-yl)methyl)-6-phenylpyrimidin-4(3H)-one] it was greater than 6.30; in that of `COc1cc(=O)n(C[C@]2(O)CCN(C(=O)N3CCNC[C@H]3c3ccccc3)CC23CCCC3)cn1` [Example 324, 3-(((S)-10-Hydroxy-7-((R)-2-phenylpiperazine-1-carbonyl)-7-azaspiro[4.5]decan-10-yl)methyl)-6-methoxypyrimidin-4(3H)-one], greater than 6.30; in that of `O=C(N1CCC(O)(Cn2cnc(-c3ccccc3)cc2=O)C2(CCOCC2)C1)N1CCOC[C@H]1c1ccccc1` (stereo partly drawn) [Example 325, 3-((5-Hydroxy-2-((R)-3-phenylmorpholine-4-carbonyl)-9-oxa-2-azaspiro[5.5]undecan-5-yl)methyl)-6-phenylpyrimidin-4(3H)-one], greater than 6.30.
The result for `O=C(N1CC[C@@](O)(Cn2ccc(Cl)cc2=O)C2(CCCC2)C1)N1CCNC[C@H]1c1ccccc1` [Example 326, 4-Chloro-1-(((S)-10-hydroxy-7-((R)-2-phenylpiperazine-1-carbonyl)-7-azaspiro[4.5]decan-10-yl)methyl)pyridin-2(1H)-one] reads greater than 6.30.
For the molecule `O=C(N1CC[C@@](O)(Cn2ccc(C3CC3)cc2=O)C2(CCCC2)C1)N1CCNC[C@H]1c1ccccc1` [Example 327, 4-Cyclopropyl-1-(((S)-10-hydroxy-7-((R)-2-phenylpiperazine-1-carbonyl)-7-azaspiro[4.5]decan-10-yl)methyl)pyridin-2(1H)-one], the negative-log IC50 (pIC50) was greater than 6.30.
The result for `Cn1nccc1-c1ccn(C[C@]2(O)CCN(C(=O)N3CCNC[C@H]3c3ccccc3)CC23CCCC3)c(=O)c1` [Example 328, 1-(((S)-10-Hydroxy-7-((R)-2-phenylpiperazine-1-carbonyl)-7-azaspiro[4.5]decan-10-yl)methyl)-4-(1-methyl-1H-pyrazol-5-yl)pyridin-2(1H)-one] reads greater than 6.30.
The result for `Cn1cc(-c2ccn(C[C@]3(O)CCN(C(=O)N4CCNC[C@H]4c4ccccc4)CC34CCCC4)c(=O)c2)cn1` [Example 329, 1-(((S)-10-Hydroxy-7-((R)-2-phenylpiperazine-1-carbonyl)-7-azaspiro[4.5]decan-10-yl)methyl)-4-(1-methyl-1H-pyrazol-4-yl)pyridin-2(1H)-one] reads greater than 6.30; that for `O=C(N1CC[C@@](O)(Cn2ccc(N3CCCC3)cc2=O)C2(CCCC2)C1)N1CCNC[C@H]1c1ccccc1` [Example 330, 1-(((S)-10-Hydroxy-7-((R)-2-phenylpiperazine-1-carbonyl)-7-azaspiro[4.5]decan-10-yl)methyl)-4-(pyrrolidin-1-yl)pyridin-2(1H)-one], greater than 6.30; that for `O=C(N1CCC(O)(Cn2cc(F)c(-c3ccccc3)cc2=O)C2(CCCC2)C1)N1CCNC[C@H]1c1ccccc1` (stereo partly drawn) [Example 331, 5-Fluoro-1-((10-hydroxy-7-((R)-2-phenylpiperazine-1-carbonyl)-7-azaspiro[4.5]decan-10-yl)methyl)-4-phenylpyridin-2(1H)-one], greater than 6.30.
In the case of `O=C(N1CCC(O)(Cn2ccc(-c3ccccc3)c(F)c2=O)C2(CCCC2)C1)N1CCNC[C@H]1c1ccccc1` (stereo partly drawn) [Example 332, 3-Fluoro-1-((10-hydroxy-7-((R)-2-phenylpiperazine-1-carbonyl)-7-azaspiro[4.5]decan-10-yl)methyl)-4-phenylpyridin-2(1H)-one] it was 5.30 to 6.30; in that of `O=C(N1CCC(O)(Cn2cnc(-c3ccccc3)cc2=O)C2(CCCC2)C1)N1CCSCC1c1ccccc1` [Example 333, (S)-3-((10-Hydroxy-7-(3-phenylthiomorpholine-4-carbonyl)-7-azaspiro[4.5]decan-10-yl)methyl)-6-phenylpyrimidin-4(3H)-one], greater than 6.30.
With `N=S1(=O)CCN(C(=O)N2CC[C@@](O)(Cn3cnc(-c4ccccc4)cc3=O)C3(CCCC3)C2)C(c2ccccc2)C1` (stereo partly drawn) [Example 334, 3-(((10S)-10-Hydroxy-7-(1-imino-1-oxido-3-phenyl-1λ^6-thiomorpholine-4-carbonyl)-7-azaspiro[4.5]decan-10-yl)methyl)-6-phenylpyrimidin-4(3H)-one], the pIC50 was greater than 6.30.
The result for `O=C(N1CC[C@@](O)(Cn2cnc(-c3ccccc3)cc2=O)C2(CCCC2)C1)N1CCS(=O)(=O)CC1c1ccccc1` (stereo partly drawn) [Example 335, (S)-3-((7-(1,1-Dioxido-3-phenylthiomorpholine-4-carbonyl)-10-hydroxy-7-azaspiro[4.5]decan-10-yl)methyl)-6-phenylpyrimidin-4(3H)-one] reads greater than 6.30.

By pIC50 is commonly meant the IC50 on a negative log10 scale, so that one unit is a factor of ten.

(Values after patent publication US20220033397A1, “PHARMACEUTICAL COMPOUNDS AND THEIR USE AS INHIBITORS OF UBIQUITIN SPECIFIC PROTEASE 19 (USP19)” (ALMAC DISCOVERY LIMITED, priority 2018, published 2022).)
